Experimental data reported in the supplement of paper PMC10307832.

How the values were obtained:
Experiment in all cases: relative viability (nuclei count vs DMSO), 5 days (fraction); higher = more cells survive
Daporinad + Palbociclib = compound: O=C(/C=C/c1cccnc1)NCCCCC1CCN(C(=O)c2ccccc2)CC1 [Daporinad] + CC(=O)c1c(C)c2cnc(Nc3ccc(N4CCNCC4)cn3)nc2n(C2CCCC2)c1=O [Palbociclib] (partner 0.5 µM)
Procedure, shortened: (§1)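 Each reported value is a median over duplicate plates. It expresses relative viability: treated-well nuclei count divided by vehicle-well nuclei count. Lung cancer cell lines in 1536-well plates were dosed by pin tool a day after seeding, alone with one drug or with a fixed anchor-drug dose plus five library-drug doses (not always all listed) in √10 steps, and nuclei were counted after 5 days.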

Daporinad + Phenformin = compound: O=C(/C=C/c1cccnc1)NCCCCC1CCN(C(=O)c2ccccc2)CC1 [Daporinad] + N=C(N)NC(=N)NCCc1ccccc1 [Phenformin] (partner 250 µM)
Procedure, shortened: as §1

Daporinad + Luminespib = compound: O=C(/C=C/c1cccnc1)NCCCCC1CCN(C(=O)c2ccccc2)CC1 [Daporinad] + CCNC(=O)c1noc(-c2cc(C(C)C)c(O)cc2O)c1-c1ccc(CN2CCOCC2)cc1 [Luminespib] (partner 0.01 µM)
Procedure, shortened: as §1

R406 + Lapatinib = compound: COc1cc(Nc2ncc(F)c(Nc3ccc4c(n3)NC(=O)C(C)(C)O4)n2)cc(OC)c1OC [R406] + CS(=O)(=O)CCNCc1ccc(-c2ccc3ncnc(Nc4ccc(OCc5cccc(F)c5)c(Cl)c4)c3c2)o1 [Lapatinib] (partner 2 µM)
Procedure, shortened: as §1

Row | Cell Line | relative viability (Daporinad + Palbociclib; first compound 0.0005 µM) | relative viability (Daporinad + Palbociclib; first compound 0.001581 µM) | relative viability (Daporinad + Palbociclib; first compound 0.005 µM) | relative viability (Daporinad + Palbociclib; first compound 0.01581 µM) | relative viability (Daporinad + Phenformin; first compound 0.0005 µM) | relative viability (Daporinad + Phenformin; first compound 0.001581 µM) | relative viability (Daporinad + Phenformin; first compound 0.005 µM) | relative viability (Daporinad + Phenformin; first compound 0.01581 µM) | relative viability (Daporinad + Luminespib; first compound 0.0005 µM) | relative viability (Daporinad + Luminespib; first compound 0.001581 µM) | relative viability (Daporinad + Luminespib; first compound 0.005 µM) | relative viability (Daporinad + Luminespib; first compound 0.01581 µM) | relative viability (R406 + Lapatinib; first compound 0.08 µM) | relative viability (R406 + Lapatinib; first compound 0.253 µM) | relative viability (R406 + Lapatinib; first compound 0.8 µM) | relative viability (R406 + Lapatinib; first compound 2.53 µM) | relative viability (R406 + Lapatinib; first compound 8 µM)
1 | NCI-H650 | 0.351 | 0.423 | 0.329 | 0.367 | 0.45 | 0.422 | 0.522 | 0.507 | 0.82 | 0.825 | 0.734 | 0.953 | 0.877 | 1.04 | 1.02 | 0.243 | 0.52
2 | NCI-H661 | 0.389 | 0.459 | 0.419 | 0.359 | 0.266 | 0.284 | 0.308 | 0.288 | 0.936 | 0.873 | 0.558 | 0.423 | 0.435 | 0.48 | 0.413 | 0.362 | 0.277
3 | NCI-H727 | 0.694 | 0.622 | 0.647 | 0.646 | 0.529 | 0.657 | 0.67 | 0.522 | 0.257 | 0.27 | 0.37 | 0.195 | 0.918 | 0.85 | 0.905 | 0.195 | 0.712
4 | NCI-H838 | 0.254 | 0.258 | 0.29 | 0.199 | 0.551 | 0.799 | 0.542 | 0.415 | 0.288 | 0.332 | 0.343 | 0.29 | 0.886 | 1.11 | 1.36 | 0.114 | 0.182
5 | NCI-H1355 | 0.413 | 0.412 | 0.384 | 0.504 | 0.454 | 0.506 | 0.542 | 0.508 | 0.79 | 0.793 | 0.752 | 0.81 | 0.887 | 0.974 | 1.08 | 0.901 | 0.764
6 | NCI-H1395 | 0.659 | 0.618 | 0.531 | 0.718 | 0.431 | 0.421 | 0.471 | 0.482 | 0.774 | 0.657 | 0.722 | 0.782 | 0.821 | 1.1 | 0.986 | 0.851 | 0.491
7 | NCI-H1437 | 0.274 | 0.332 | 0.338 | 0.289 | 0.349 | 0.325 | 0.349 | 0.362 | 1.14 | 1.16 | 1.15 | 1.06 | 0.689 | 1.01 | 1.07 | 0.265 | 0.328
8 | NCI-H1650 | 0.321 | 0.413 | 0.415 | 0.334 | 0.406 | 0.55 | 0.416 | 0.223 | 0.187 | 0.182 | 0.182 | 0.196 | 0.724 | 0.926 | 0.802 | 0.154 | 0.119
9 | NCI-H1651 | 0.537 | 0.528 | 0.5 | 0.522 | 0.299 | 0.381 | 0.433 | 0.329 | 0.829 | 0.676 | 0.805 | 0.67 | 0.694 | 0.87 | 0.944 | 0.234 | 0.275
10 | NCI-H1666 | 0.653 | 0.679 | 0.624 | 0.69 | 0.586 | 0.563 | 0.602 | 0.562 | 1.01 | 0.985 | 1.07 | 1.03 | 0.784 | 0.79 | 0.708 | 0.452 | 0.336
11 | NCI-H1734 | 0.361 | 0.404 | 0.356 | 0.328 | 0.437 | 0.496 | 0.479 | 0.299 | 0.233 | 0.187 | 0.185 | 0.228 | 1.03 | 1.1 | 1.1 | 0.426 | 0.621
12 | NCI-H1755 | 0.456 | 0.441 | 0.415 | 0.431 | 0.648 | 0.628 | 0.639 | 0.667 | 0.31 | 0.381 | 0.541 | 0.488 | 1.03 | 1.07 | 1.04 | 0.678 | 0.329
13 | NCI-H1792 | 0.637 | 0.694 | 0.654 | 0.681 | – | 0.582 | 0.222 | 0.68 | – | 0.443 | 0.347 | 0.604 | 0.844 | 1.1 | 1.06 | 0.776 | 0.765
14 | NCI-H1793 | 0.305 | 0.33 | 0.346 | 0.332 | 0.322 | 0.395 | 0.403 | 0.564 | 0.163 | 0.203 | 0.158 | 0.217 | 0.823 | 0.692 | 0.641 | 0.144 | 0.207
15 | NCI-H1915 | 0.569 | 0.508 | 0.61 | 0.521 | 0.328 | 0.398 | 0.362 | 0.365 | 0.893 | 0.703 | 0.786 | 0.824 | 0.991 | 1.09 | 1.03 | 0.806 | 0.778
16 | NCI-H1944 | 0.36 | 0.356 | 0.374 | 0.353 | 0.206 | 0.219 | 0.214 | 0.241 | 0.85 | 0.802 | 0.829 | 0.729 | 0.756 | 0.862 | 0.855 | 0.559 | 0.614
17 | NCI-H1975 | 0.565 | 0.602 | 0.613 | 0.705 | 0.435 | 0.404 | 0.457 | 0.401 | 0.206 | 0.262 | 0.183 | 0.3 | 0.779 | 1.01 | 1.14 | 0.221 | 0.169
